Data on eleven molecules can be found in US20230220021A1, “CYCLIC PEPTIDE INHIBITORS OF PSD-95 AND USES THEREOF” (University of Copenhagen, priority 2020, published 2023).

SMILES strings stand for the structures. Where a SMILES comes first, the peptide text is derived from it. [ ]: non-standard residue; d: D form.

By Kd is commonly meant the equilibrium constant for the complex coming apart. As usually defined, the Ki is a dissociation constant, usually derived from enzyme kinetics or from competition with a known ligand.

Common to all, as to format: binding
Assay [1] addresses T1, PSD-95-PDZ2 (Homo sapiens, UniProt P78352).
T1 construct: 7xHis (N); made in house; host or cells: Escherichia coli B21 pLys (for the mutants, 'as previously described')
Put plainly: Isothermal titration calorimetry (ITC). On the technique in general: Isothermal titration calorimetry measures the heat released or taken up as one component is titrated into another.
Procedure: Isothermal titration calorimetry (ITC). The ITC assays were performed in NaPi 50 nM, 50 nM NaCl, pH 7.2 buffer filtered with a Corning® bottle-top vacuum filter system of a pore size of 0.22 μM, that was used to dissolve the peptides. Proteins were dialyzed against this buffer using Amicon® Ultra-15 centrifugal filter units, with a MWCO 3000 Da.
This assay was performed on an ITC200. The instrument differential power (DP) was set to 10 and the syringe rotating speed to 600 RPM. The assay setup consisted of introducing the protein inside the cell and the peptide (titrant) on the syringe. Calorimetry was performed at 25° C. Each analysis was performed in triplicates. Furthermore, several runs of peptide into buffer were performed in order to remove injection residual heat. Runs were analyzed with Origin 7.0 software (OriginLab).

Assay [2] deals with T1, PSD-95-PDZ2. Put plainly: Fluorescence polarization (FP) competition assay against cyclic nNOS TAMRA probe. The following applies: for Ki: FP competition, cyclic nNOS TAMRA probe, mean of triplicates, N.B. = not binding, read-out: Ki; for Relative Ki (Ki mut/Ki WT): FP inhibition constant normalized to WT value. In general terms: In fluorescence polarisation assays a small probe gives low polarisation when free and higher when bound to something large.
Procedure: Fluorescence polarization (FP). FP assays were performed in a 384-well plate format. Fluorescence polarization was measured using a Safire 2 plate reader. The instrument Z-factor was optimized for each assay. The G-factor was calibrated to an initial milli polarization value of 20. The wavelength for the cyclic nNOS β-hairpin TAMRA probe was: ex: 530 nm and em: 580 nm. Every measurement was performed in NaPI 50 mM, 50 mM NaCl and 1% BSA at pH 7.2, 25° C. […] The curves were done in triplicates. Then, the polarization was fitted into a one-site binding model using Prism software 8.0 (GraphPad), from which the Kd can be measured. […] The mili polarization (mP) values were plotted as a function of peptide concentration and fitted to a sigmoidal dose-response curve using Prism software 8.0 (GraphPad). The Ki values were calculated according to Nikolovska-Coleska Z. et al.^40-41

The target of assay [3] is T2, PSD-95-PDZ2 (Homo sapiens, UniProt P78352, V178C).
T2 construct: screened with the TAMRA labelled PSD-95-PDZ2-V178C domain; 7xHis (N); made in house
Put plainly: SPOT peptide array screening with TAMRA labelled PSD-95-PDZ2. The conditions noted are these: SPOT array, TAMRA labelled PSD-95-PDZ2-V178C, normalized to WT. The gist of the method: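 First, arrays were blocked 1 h and scanned to record background. Next, 50 nM labelled PDZ2-V178C in PBS pH 7.2 with 0.5% BSA bound for 1 h protected from light. Finally, after washes, 532 nm fluorescence was measured and background-corrected.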

`CC[C@H](C)[C@@H]1NC(=O)[C@H]([C@@H](C)O)NC(=O)[C@H](CCCCN)NC(=O)[C@@H]2CCCN2C(=O)[C@H]([C@@H](C)O)NC(=O)CNC(=O)[C@H](CC(=O)O)NC(=O)CNC(=O)[C@H]([C@@H](C)O)NC(=O)[C@H](Cc2ccccc2)NC(=O)[C@H]([C@@H](C)O)NC(=O)[C@H]([C@@H](C)O)NC(=O)[C@H](CCC(=O)O)NC(=O)[C@H](CC(C)C)NC(=O)[C@H](Cc2c[nH]cn2)NC(=O)[C@H]([C@@H](C)O)NC(=O)[C@H](CCC(N)=O)NC(=O)CNC(=O)[C@H]2CCCN2C(=O)[C@H](CCC(N)=O)NC(=O)[C@H]([C@@H](C)O)NC(=O)[C@H](C(C)C)NC(=O)[C@H](CCCNC(=N)N)NC1=O` [SEQ ID NO: 12]: the Kd at PSD-95-PDZ2 [1] (25° C., tested up to 100 μM, read-out: affinity (Kd) by ITC) is 2.2 ± 0.3 µM.

Regarding `CC[C@H](C)[C@@H]1NC(=O)[C@H]([C@@H](C)O)NC(=O)[C@H](CCCCN)NC(=O)[C@@H]2CCCN2C(=O)[C@H](CCC(=O)O)NC(=O)CNC(=O)[C@H](CC(=O)O)NC(=O)CNC(=O)[C@H](Cc2c[nH]c3ccccc23)NC(=O)[C@H](Cc2ccccc2)NC(=O)[C@H]([C@@H](C)O)NC(=O)[C@H]([C@@H](C)O)NC(=O)[C@H](CCC(=O)O)NC(=O)[C@H](CC(C)C)NC(=O)[C@H](Cc2c[nH]cn2)NC(=O)[C@H]([C@@H](C)O)NC(=O)[C@H](CCC(N)=O)NC(=O)CNC(=O)[C@H]2CCCN2C(=O)[C@H](CCC(N)=O)NC(=O)[C@H]([C@@H](C)O)NC(=O)[C@H](C(C)C)NC(=O)[C@H](CCCNC(=N)N)NC1=O` [SEQ ID NO: 14] (cyclo(THLETTFWGDGEPKTIRVTQ[dP]GQ)), the “fold improved binding affinity compared to the wild-type peptide” value at PSD-95-PDZ2 [1] (ITC Kd) was 16 fold.

Regarding `CC[C@H](C)[C@@H]1NC(=O)[C@H]([C@@H](C)O)NC(=O)[C@H](CCCCN)NC(=O)[C@@H]2CCCN2C(=O)[C@H]([C@@H](C)O)NC(=O)[C@H](C)NC(=O)[C@H](CC(=O)O)NC(=O)CNC(=O)[C@H]([C@@H](C)O)NC(=O)[C@H](Cc2ccccc2)NC(=O)[C@H]([C@@H](C)O)NC(=O)[C@H]([C@@H](C)O)NC(=O)[C@H](CCC(=O)O)NC(=O)[C@H](CC(C)C)NC(=O)[C@H](Cc2c[nH]cn2)NC(=O)[C@H]([C@@H](C)O)NC(=O)[C@H](CCC(N)=O)NC(=O)CNC(=O)[C@H]2CCCN2C(=O)[C@H](CCC(N)=O)NC(=O)[C@H]([C@@H](C)O)NC(=O)[C@H](C(C)C)NC(=O)[C@H](CCCNC(=N)N)NC1=O` [compound 65] (cyclo(THLETTFTGDATPKTIRVTQ[dP]GQ)), at PSD-95-PDZ2 [2], the inhibition constant (Ki) was 0.41 µM and the “Relative Ki (Ki mut/Ki WT)” value worked out at 0.27. Besides, the “Normalized SPOT fluorescence (Mut/WT)” value on PSD-95-PDZ2 [3] was 1.34.

Turning to `CC[C@H](C)[C@@H]1NC(=O)[C@H]([C@@H](C)O)NC(=O)[C@H](CCCCN)NC(=O)[C@@H]2CCCN2C(=O)[C@H](C)NC(=O)CNC(=O)[C@H](CC(=O)O)NC(=O)CNC(=O)[C@H]([C@@H](C)O)NC(=O)[C@H](Cc2ccccc2)NC(=O)[C@H]([C@@H](C)O)NC(=O)[C@H]([C@@H](C)O)NC(=O)[C@H](CCC(=O)O)NC(=O)[C@H](CC(C)C)NC(=O)[C@H](Cc2c[nH]cn2)NC(=O)[C@H]([C@@H](C)O)NC(=O)[C@H](CCC(N)=O)NC(=O)CNC(=O)[C@H]2CCCN2C(=O)[C@H](CCC(N)=O)NC(=O)[C@H]([C@@H](C)O)NC(=O)[C@H](C(C)C)NC(=O)[C@H](CCCNC(=N)N)NC1=O` [compound 66] (cyclo(THLETTFTGDGAPKTIRVTQ[dP]GQ)), on PSD-95-PDZ2 [2], the “Relative Ki (Ki mut/Ki WT)” value is recorded as 0.83. Also, the “Normalized SPOT fluorescence (Mut/WT)” value on PSD-95-PDZ2 [3] came out at 1.30.

`CC[C@H](C)[C@@H]1NC(=O)[C@H]([C@@H](C)O)NC(=O)[C@H](CCCCN)NC(=O)[C@H](C)NC(=O)[C@H]([C@@H](C)O)NC(=O)CNC(=O)[C@H](CC(=O)O)NC(=O)CNC(=O)[C@H]([C@@H](C)O)NC(=O)[C@H](Cc2ccccc2)NC(=O)[C@H]([C@@H](C)O)NC(=O)[C@H]([C@@H](C)O)NC(=O)[C@H](CCC(=O)O)NC(=O)[C@H](CC(C)C)NC(=O)[C@H](Cc2c[nH]cn2)NC(=O)[C@H]([C@@H](C)O)NC(=O)[C@H](CCC(N)=O)NC(=O)CNC(=O)[C@H]2CCCN2C(=O)[C@H](CCC(N)=O)NC(=O)[C@H]([C@@H](C)O)NC(=O)[C@H](C(C)C)NC(=O)[C@H](CCCNC(=N)N)NC1=O` [compound 67] (cyclo(THLETTFTGDGTAKTIRVTQ[dP]GQ)): the “Relative Ki (Ki mut/Ki WT)” value on PSD-95-PDZ2 [2] is 1.07. The “Normalized SPOT fluorescence (Mut/WT)” value on PSD-95-PDZ2 [3] is 0.93.

Take `CC[C@H](C)[C@@H]1NC(=O)[C@H](C)NC(=O)[C@H](CCCCN)NC(=O)[C@@H]2CCCN2C(=O)[C@H]([C@@H](C)O)NC(=O)CNC(=O)[C@H](CC(=O)O)NC(=O)CNC(=O)[C@H]([C@@H](C)O)NC(=O)[C@H](Cc2ccccc2)NC(=O)[C@H]([C@@H](C)O)NC(=O)[C@H]([C@@H](C)O)NC(=O)[C@H](CCC(=O)O)NC(=O)[C@H](CC(C)C)NC(=O)[C@H](Cc2c[nH]cn2)NC(=O)[C@H]([C@@H](C)O)NC(=O)[C@H](CCC(N)=O)NC(=O)CNC(=O)[C@H]2CCCN2C(=O)[C@H](CCC(N)=O)NC(=O)[C@H]([C@@H](C)O)NC(=O)[C@H](C(C)C)NC(=O)[C@H](CCCNC(=N)N)NC1=O` [compound 69] (cyclo(THLETTFTGDGTPKAIRVTQ[dP]GQ)): at PSD-95-PDZ2 [2], the Ki was determined as 17 µM and the “Relative Ki (Ki mut/Ki WT)” value was 11.33. The “Normalized SPOT fluorescence (Mut/WT)” value on PSD-95-PDZ2 [3] was 0.09.

For `CC(C)C[C@@H]1NC(=O)[C@H](Cc2c[nH]cn2)NC(=O)[C@H]([C@@H](C)O)NC(=O)[C@H](CCC(N)=O)NC(=O)CNC(=O)[C@H]2CCCN2C(=O)[C@H](CCC(N)=O)NC(=O)[C@H]([C@@H](C)O)NC(=O)[C@H](C(C)C)NC(=O)[C@H](CCCNC(=N)N)NC(=O)[C@H](C)NC(=O)[C@H]([C@@H](C)O)NC(=O)[C@H](CCCCN)NC(=O)[C@@H]2CCCN2C(=O)[C@H]([C@@H](C)O)NC(=O)CNC(=O)[C@H](CC(=O)O)NC(=O)CNC(=O)[C@H]([C@@H](C)O)NC(=O)[C@H](Cc2ccccc2)NC(=O)[C@H]([C@@H](C)O)NC(=O)[C@H]([C@@H](C)O)NC(=O)[C@H](CCC(=O)O)NC1=O` [compound 70] (cyclo(THLETTFTGDGTPKTARVTQ[dP]GQ)), at PSD-95-PDZ2 [2], the Ki was determined as 1.76 µM and the “Relative Ki (Ki mut/Ki WT)” value is given as 1.17. Besides, at PSD-95-PDZ2 [3], the “Normalized SPOT fluorescence (Mut/WT)” value came to 0.06.

On to `CC[C@H](C)[C@@H]1NC(=O)[C@H]([C@@H](C)O)NC(=O)[C@H](CCCCN)NC(=O)[C@@H]2CCCN2C(=O)[C@H]([C@@H](C)O)NC(=O)CNC(=O)[C@H](CC(=O)O)NC(=O)CNC(=O)[C@H]([C@@H](C)O)NC(=O)[C@H](Cc2ccccc2)NC(=O)[C@H]([C@@H](C)O)NC(=O)[C@H]([C@@H](C)O)NC(=O)[C@H](CCC(=O)O)NC(=O)[C@H](CC(C)C)NC(=O)[C@H](Cc2c[nH]cn2)NC(=O)[C@H]([C@@H](C)O)NC(=O)[C@H](CCC(N)=O)NC(=O)CNC(=O)[C@H]2CCCN2C(=O)[C@H](CCC(N)=O)NC(=O)[C@H]([C@@H](C)O)NC(=O)[C@H](C(C)C)NC(=O)[C@H](C)NC1=O` [compound 71] (cyclo(THLETTFTGDGTPKTIAVTQ[dP]GQ)), for which the “Relative Ki (Ki mut/Ki WT)” value on PSD-95-PDZ2 [2] is on record as 1.65. On PSD-95-PDZ2 [3], the “Normalized SPOT fluorescence (Mut/WT)” value amounted to 0.15.

Regarding `CC[C@H](C)[C@@H]1NC(=O)[C@H]([C@@H](C)O)NC(=O)[C@H](CCCCN)NC(=O)[C@@H]2CCCN2C(=O)[C@H]([C@@H](C)O)NC(=O)CNC(=O)[C@H](CC(=O)O)NC(=O)CNC(=O)[C@H]([C@@H](C)O)NC(=O)[C@H](Cc2ccccc2)NC(=O)[C@H]([C@@H](C)O)NC(=O)[C@H]([C@@H](C)O)NC(=O)[C@H](CCC(=O)O)NC(=O)[C@H](CC(C)C)NC(=O)[C@H](Cc2c[nH]cn2)NC(=O)[C@H]([C@@H](C)O)NC(=O)[C@H](CCC(N)=O)NC(=O)CNC(=O)[C@H]2CCCN2C(=O)[C@H](CCC(N)=O)NC(=O)[C@H]([C@@H](C)O)NC(=O)[C@H](C)NC(=O)[C@H](CCCNC(=N)N)NC1=O` [compound 72] (cyclo(THLETTFTGDGTPKTIRATQ[dP]GQ)), the “Relative Ki (Ki mut/Ki WT)” value on PSD-95-PDZ2 [2] is 1.49. Further, the “Normalized SPOT fluorescence (Mut/WT)” value on PSD-95-PDZ2 [3] came to 0.09.

With `CC[C@H](C)[C@@H]1NC(=O)[C@H]([C@@H](C)O)NC(=O)[C@H](CCCCN)NC(=O)[C@@H]2CCCN2C(=O)[C@H]([C@@H](C)O)NC(=O)CNC(=O)[C@H](CC(=O)O)NC(=O)CNC(=O)[C@H]([C@@H](C)O)NC(=O)[C@H](Cc2ccccc2)NC(=O)[C@H]([C@@H](C)O)NC(=O)[C@H]([C@@H](C)O)NC(=O)[C@H](CCC(=O)O)NC(=O)[C@H](CC(C)C)NC(=O)[C@H](Cc2c[nH]cn2)NC(=O)[C@H]([C@@H](C)O)NC(=O)[C@H](CCC(N)=O)NC(=O)CNC(=O)[C@H]2CCCN2C(=O)[C@H](CCC(N)=O)NC(=O)[C@H](C)NC(=O)[C@H](C(C)C)NC(=O)[C@H](CCCNC(=N)N)NC1=O` [compound 73] (cyclo(THLETTFTGDGTPKTIRVAQ[dP]GQ)), the “Relative Ki (Ki mut/Ki WT)” value at PSD-95-PDZ2 [2] worked out at 1.03. At PSD-95-PDZ2 [3], the “Normalized SPOT fluorescence (Mut/WT)” value is 0.61.

With `CC[C@H](C)[C@@H]1NC(=O)[C@H]([C@@H](C)O)NC(=O)[C@H](CCCCN)NC(=O)[C@@H]2CCCN2C(=O)[C@H]([C@@H](C)O)NC(=O)CNC(=O)[C@H](CC(=O)O)NC(=O)CNC(=O)[C@H]([C@@H](C)O)NC(=O)[C@H](Cc2ccccc2)NC(=O)[C@H]([C@@H](C)O)NC(=O)[C@H]([C@@H](C)O)NC(=O)[C@H](CCC(=O)O)NC(=O)[C@H](CC(C)C)NC(=O)[C@H](Cc2c[nH]cn2)NC(=O)[C@H]([C@@H](C)O)NC(=O)[C@H](CCC(N)=O)NC(=O)CNC(=O)[C@H]2CCCN2C(=O)[C@H](C)NC(=O)[C@H]([C@@H](C)O)NC(=O)[C@H](C(C)C)NC(=O)[C@H](CCCNC(=N)N)NC1=O` [compound 74] (cyclo(THLETTFTGDGTPKTIRVTA[dP]GQ)), the “Relative Ki (Ki mut/Ki WT)” value on PSD-95-PDZ2 [2] is listed as 1.01. Moreover, the “Normalized SPOT fluorescence (Mut/WT)” value at PSD-95-PDZ2 [3] turned out to be 0.42.
